How the values were obtained:
[1] = test system: ECHCG; assay: greenhouse post-emergence herbicidal test; type: in vivo, Echinocloa crus-galli; details: scale 0 to 100
From the text: (§1) The seeds of the test plants were sown separately for each species. For the post-emergence treatment, the test plants were first grown to a height of 3 to 15 cm, depending on the plant habit, and only then treated with the active ingredients which had been suspended or emulsified in water. For this purpose, the test plants were either sown directly and grown in the same containers, or they were first grown separately as seedlings and transplanted into the test containers a few days prior to treatment. Depending on the species, the plants were kept at 10-25° C. or 20-35° C., respectively. The test period extended over 2 to 4 weeks. During this time, the plants were tended, and their response to the individual treatments was evaluated. Evaluation was carried out using a scale from 0 to 100. 100 means no emergence of the plants, or complete destruction of at least the aerial moieties, and 0 means no damage, or normal course of growth. A good herbicidal activity is given at values of at least 70 and a very good herbicidal activity is given at values of at least 85. The plants used in the greenhouse experiments were of the following species: [table]

[2] = test system: ALOMY; assay: greenhouse post-emergence herbicidal test; type: in vivo, Alopecurus myosuroides; details: for herbicidal activity: ALOMY, scale 0 to 100; for control of ALOMY: 500 g/ha
From the text: as §1

[3] = test system: ALOMY; assay: greenhouse pre-emergence herbicidal test; type: in vivo, Alopecurus myosuroides; details: 125 g/ha
From the text: (§2) The seeds of the test plants were sown separately for each species. For the pre-emergence treatment, the active ingredients, which had been suspended or emulsified in water, were applied directly after sowing by means of finely distributing nozzles. The containers were irrigated gently to promote germination and growth and subsequently covered with transparent plastic hoods until the plants had rooted. This cover caused uniform germination of the test plants, unless this had been impaired by the active ingredients. Depending on the species, the plants were kept at 10-25° C. or 20-35° C., respectively. The test period extended over 2 to 4 weeks. During this time, the plants were tended, and their response to the individual treatments was evaluated. Evaluation was carried out using a scale from 0 to 100. 100 means no emergence of the plants, or complete destruction of at least the aerial moieties, and 0 means no damage, or normal course of growth. A good herbicidal activity is given at values of at least 70 and a very good herbicidal activity is given at values of at least 85. The plants used in the greenhouse experiments were of the following species: [table]

[4] = test system: ECHCG; assay: greenhouse pre-emergence herbicidal test; type: in vivo, Echinocloa crus-galli; details: scale 0 to 100
From the text: as §2

[5] = test system: AVEFA; assay: greenhouse post-emergence herbicidal test; type: in vivo, Avena fatua; details: for control of AVEFA: 500 g/ha; for herbicidal activity: AVEFA, scale 0 to 100
From the text: as §1

[6] = test system: APESV; assay: greenhouse pre-emergence herbicidal test; type: in vivo, Apera spica-venti; details: for control of APESV: 125 g/ha; for herbicidal activity: APESV, scale 0 to 100
From the text: as §2

[7] = test system: AMARE; assay: greenhouse post-emergence herbicidal test; type: in vivo, Amaranthus retroflexus; details: for control of AMARE: 500 g/ha; for herbicidal activity: 1000 g/ha, AMARE, scale 0 to 100
From the text: as §1

[8] = test system: AGSST; assay: greenhouse post-emergence herbicidal test; type: in vivo, Agrostis stolonifera; details: 2000 g/ha, scale 0 to 100
From the text: as §1

[9] = test system: POAAN; assay: greenhouse pre-emergence herbicidal test; type: in vivo, Poa annua; details: 2000 g/ha, scale 0 to 100
From the text: as §2

[10] = test system: AGSST; assay: greenhouse pre-emergence herbicidal test; type: in vivo, Agrostis stolonifera; details: 2000 g/ha, scale 0 to 100
From the text: as §2

[11] = test system: POAAN; assay: greenhouse post-emergence herbicidal test; type: in vivo, Poa annua; details: 2000 g/ha, scale 0 to 100
From the text: as §1

[12] = test system: SETVI; assay: greenhouse post-emergence herbicidal test; type: in vivo, Setaria viridis; details: 1000 g/ha, scale 0 to 100
From the text: as §1

[13] = test system: MATIN; assay: greenhouse post-emergence herbicidal test; type: in vivo, Matricaria inodora; details: 2000 g/ha, scale 0 to 100
From the text: as §1

Row | SMILES | herbicidal activity ([1]; 1000 g/ha) | herbicidal activity ([2]; 1000 g/ha) | herbicidal activity ([4]; 1000 g/ha) | control of AVEFA [5] [%] | herbicidal activity ([6]; 1000 g/ha) | herbicidal activity ([6]; 2000 g/ha) | herbicidal activity ([2]; 2000 g/ha) | further results
1 | COC(=O)c1nc(C2CC2)ncc1-c1cc(C(F)(F)F)ccc1Cl [Ex.3, Methyl 5-[2-chloro-5-(trifluoromethyl)phenyl]-2-cyclopropyl-pyrimidine-4-carboxylate] | very good (a very good herbicidal activity is given at values of at least 85) | very good (a very good herbicidal activity is given at values of at least 85) | very good (a very good herbicidal activity is given at values of at least 85) | 85 | very good (a very good herbicidal activity is given at values of at least 85) | – | – | control of ALOMY [3]: 85%; herbicidal activity ([5]; 1000 g/ha): very good (a very good herbicidal activity is given at values of at least 85); control of APESV [6]: 90%
2 | O=C(O)c1nc(C2CC2)ncc1-c1cc(C(F)(F)F)ccc1Cl [Ex.4, 5-[2-chloro-5-(trifluoromethyl)phenyl]-2-cyclopropyl-pyrimidine-4-carboxylic acid] | very good (a very good herbicidal activity is given at values of at least 85) | very good (a very good herbicidal activity is given at values of at least 85) | very good (a very good herbicidal activity is given at values of at least 85) | 90 | very good (a very good herbicidal activity is given at values of at least 85) | – | – | control of ALOMY [2]: 90%; control of ALOMY [3]: 90%; control of AMARE [7]: 80%; herbicidal activity [7]: very good (a very good herbicidal activity is given at values of at least 85); control of APESV [6]: 100%
3 | COC(=O)c1nc(C2CC2)ncc1-c1cc(C(F)(F)F)ccc1Br [Ex.5] | – | – | – | – | – | – | – | herbicidal activity [8]: very good (a very good herbicidal activity is given at values of at least 85); herbicidal activity [9]: very good (a very good herbicidal activity is given at values of at least 85); herbicidal activity [10]: good (A good herbicidal activity is given at values of at least 70); herbicidal activity [11]: very good (a very good herbicidal activity is given at values of at least 85)
4 | O=C(O)c1nc(C2CC2)ncc1-c1cc(C(F)(F)F)ccc1Br [Ex.6] | very good (a very good herbicidal activity is given at values of at least 85) | very good (a very good herbicidal activity is given at values of at least 85) | very good (a very good herbicidal activity is given at values of at least 85) | – | very good (a very good herbicidal activity is given at values of at least 85) | – | – | herbicidal activity [12]: very good (a very good herbicidal activity is given at values of at least 85)
5 | COC(=O)c1nc(C2CC2)ncc1-c1cc(C(F)F)ccc1Cl [Ex.7] | very good (a very good herbicidal activity is given at values of at least 85) | very good (a very good herbicidal activity is given at values of at least 85) | very good (a very good herbicidal activity is given at values of at least 85) | 90 | very good (a very good herbicidal activity is given at values of at least 85) | – | – | herbicidal activity ([5]; 1000 g/ha): very good (a very good herbicidal activity is given at values of at least 85)
6 | O=C(O)c1nc(C2CC2)ncc1-c1cc(C(F)F)ccc1Cl [Ex.8] | – | very good (a very good herbicidal activity is given at values of at least 85) | very good (a very good herbicidal activity is given at values of at least 85) | 90 | very good (a very good herbicidal activity is given at values of at least 85) | – | – | control of ALOMY [2]: 90%; control of AMARE [7]: 100%; herbicidal activity [7]: very good (a very good herbicidal activity is given at values of at least 85); herbicidal activity [12]: very good (a very good herbicidal activity is given at values of at least 85)
7 | O=C(O)c1nc(C2CC2)ncc1-c1cc(C(F)(F)F)cc(Br)c1Br [Ex.9] | – | – | – | – | – | good (A good herbicidal activity is given at values of at least 70) | – | herbicidal activity [9]: very good (a very good herbicidal activity is given at values of at least 85); herbicidal activity [13]: very good (a very good herbicidal activity is given at values of at least 85); herbicidal activity [11]: very good (a very good herbicidal activity is given at values of at least 85)
8 | COC(=O)c1nc(C2CC2)ncc1-c1cc(OC(F)(F)F)ccc1F [Ex.11] | – | – | – | – | – | very good (a very good herbicidal activity is given at values of at least 85) | very good (a very good herbicidal activity is given at values of at least 85) | herbicidal activity ([4]; 2000 g/ha): very good (a very good herbicidal activity is given at values of at least 85); herbicidal activity ([5]; 2000 g/ha): very good (a very good herbicidal activity is given at values of at least 85)
9 | O=C(O)c1nc(C2CC2)ncc1-c1cc(OC(F)(F)F)ccc1F [Ex.12] | – | – | – | – | – | very good (a very good herbicidal activity is given at values of at least 85) | very good (a very good herbicidal activity is given at values of at least 85) | herbicidal activity ([5]; 2000 g/ha): good (A good herbicidal activity is given at values of at least 70)
10 | COC(=O)c1nc(C2CC2)ncc1-c1cc(C(F)(F)F)ccc1C [Ex.13] | – | – | – | – | – | very good (a very good herbicidal activity is given at values of at least 85) | very good (a very good herbicidal activity is given at values of at least 85) | herbicidal activity ([4]; 2000 g/ha): very good (a very good herbicidal activity is given at values of at least 85)
11 | Cc1ccc(C(F)(F)F)cc1-c1cnc(C2CC2)nc1C(=O)O [Ex.14] | – | – | – | – | – | very good (a very good herbicidal activity is given at values of at least 85) | very good (a very good herbicidal activity is given at values of at least 85) | herbicidal activity ([1]; 2000 g/ha): very good (a very good herbicidal activity is given at values of at least 85); herbicidal activity ([4]; 2000 g/ha): very good (a very good herbicidal activity is given at values of at least 85); herbicidal activity ([5]; 2000 g/ha): very good (a very good herbicidal activity is given at values of at least 85)
